Test results: paper PMC2879362, “Design of Group IIA Secreted/Synovial Phospholipase A2 Inhibitors: An Oxadiazolone Derivative Suppresses Chondrocyte Prostaglandin E2 Secretion” (PLoS ONE, 2010)
“Also recorded” adds a separate entry of the source. Marks after values point to notes of the source that are not given here.

How the values were obtained:
[1] = system: IL-1β-stimulated PGE2 secretion in articular chondrocytes; assay: IL-1β-stimulated PGE2 secretion in articular chondrocytes (EIA); type: cell-based, rabbit; conditions: for C8 inhibitory effect (%inhibition) on PGE2 secretion: DMEM with 2% FCS, 20 h; for decrease of PGE2 production induced by IL-1β: IL-1β 20 h
Protocol: We tested the effect of C8 on the IL-1β-stimulated secretion of PGE2 in chondrocytes. PGE2 synthesis takes place mainly in response to cell activation by IL-1β, and its generation accounts for many of the actions induced by this cytokine. In vitro, IL-1β induces the expression of COX-2 by chondrocytes, which results in increased PGE2 production. PGE2 release thus represents a powerful IL-1β- and PLA2-dependent inflammatory marker in our cell model. Chondrocytes were treated for 20 h with IL-1β alone or 1 h after the addition of C8. […] In DMEM alone, at concentrations of 0.31-, 0.62-, 0.94-, and 1.24-µM, C8 decreased the production of PGE2 induced by IL-1β by 59-, 58-, 74-, and 80-%, respectively (Fig. 4A). In DMEM supplemented with 0.1% BSA, at concentrations of 0.31-, 0.62-, 0.94-, 1.24-, 2.48-, and 4.96-µM, C8 decreased the production of PGE2 induced by IL-1β by 31-, 30-, 45-, 43-, 81-, and 92-%, respectively (Fig. 4B). In DMEM supplemented with 2% FCS, at concentrations of 0.31-, 0.62-, 0.94-, 1.24-, 2.48-, and 4.96-µM, C8 decreased the production of PGE2 induced by IL-1β by 26-, 48-, 49-, 54-, 68-, and 68-%, respectively (Fig. 4C). […] The effect of C8 was then evaluated at the extreme concentrations (0.31- and 4.96-µM) in DMEM supplemented with 2% FCS and containing decreasing (1-, 0.5-, and 0.25-ng/mL) IL-1β concentrations (Table 3). The anti-IL-1β inhibitory effect of C8 at 0.31 µM increases when IL-1β concentration decreases. […] This is probably due to the fact that at 4.96 µM, the inhibitory effect of C8 on IL-1β-induced PGE2 production is maximal. […] Thus, C8, but not C1, decreases the IL-1β-stimulated PGE2 secretion in a dose-dependent manner in the three culture medium compositions used.
(§1) Articular chondrocytes were isolated from 5-week-old Fauve de Bourgogne female rabbits (CPA, Orleans, France) and cultured at the first passage in conditions avoiding cell dedifferentiation as previously described. Cells were cultured at 37°C in 12-well plates in Ham's F-12 medium containing 10% FCS, 20 IU/mL penicillin, and 20 µg/mL streptomycin (all from Invitrogen) until nearly confluent. Then medium was replaced with DMEM (Invitrogen) containing 20 IU/mL penicillin, and 20 µg/mL streptomycin and, if necessary, 0.1% fatty acid free BSA (Sigma) or 2% FCS. At this time the C8 compound dissolved in DMSO (Sigma) was added to the medium (the amount of DMSO was kept at 1‰ (v/v) in all the wells). 1 h after the addition of C8, IL-1β (PeproTech) was added to the medium. Consequently, chondrocytes were incubated for 20 h with IL-1β and for 21 h with C8.
(§2) 20 h after the addition of IL-1β to the chondrocytes, culture media were collected, and aliquots were stored at −80°C until PGE2 and nitrite quantification. PGE2 concentration in culture media was determined by use of an enzyme immunoassay (EIA) kit (PGE2 EIA Kit-monoclonal; Cayman Chemical). Nitrite concentration was determined by a spectrophotometry method based on the Griess reaction. Briefly, 200 µL of culture medium or sodium nitrite (NaNO2, Merck) standard dilutions were mixed with 100 µL Griess reagent [0.5% (w/v) sulphanilic acid (Merck), 0.05% (w/v) N(1-naphtyl)ethylenediamine (Merck), 30% (v/v) acetic acid, 1.5 N HCl] and incubated for 10 min at 50°C. The absorbance was measured at 540 nm.

[2] = system: rabbit articular chondrocytes; assay: MTT cell viability of IL-1β-treated articular chondrocytes; type: cell-based; conditions: IL-1β 1 ng/mL 20 h
Protocol: We assessed the viability of the chondrocytes by MTT assay to evaluate the cytotoxic effects of C8 on these cells. Chondrocytes were treated for 20 h with 1 ng/mL IL-1β alone or 1 h after the addition of C8 at 0.31 to 9.92 µM, which corresponded to 0.5- to 5-fold the IC50 of C8 on human GIIAPLA2 activity (Table 2). Three different culture medium compositions were used: DMEM alone, or supplemented with 0.1% BSA or 2% FCS. […] Thus, we evaluated the anti-inflammatory activity of C8 in culture conditions from 0.31 to 1.24 µM in DMEM alone and from 0.31 to 4.96 µM in DMEM supplemented with 0.1% BSA or 2% FCS.
as §1
At 18 h after the addition of IL-1β, 3-[4,5-dimethylthiazol-2-yl]-2,5-diphenyl tetrazolium bromide (MTT; Sigma) was added to the cell culture medium at 0.5 mg/mL. Cells were incubated 2 more hours at 37°C. The medium was then removed, and DMSO was added to dissolve the formazan crystals. The absorbance of the resulting solution was spectrophotometrically measured at 570 and 690 nm (background). The value corresponding to absorbance570nm - absorbance690nm was directly proportional to the number and activity of the viable cells.

[3] = system: IL-1β-stimulated NO secretion in articular chondrocytes; assay: IL-1β-stimulated NO (nitrite) secretion in articular chondrocytes (Griess); type: cell-based, rabbit
Protocol: We tested the effect of C8 on the IL-1β-stimulated secretion of NO in chondrocytes. NO is a mediator of immune and inflammatory responses. In vitro, IL-1β induces the expression of inducible NO synthase (iNOS) by chondrocytes, and consequently an increase in NO production. NO secretion, evaluated by nitrite concentration in the cell culture medium, represents a reliable IL-1β-dependent and PLA2-independent inflammatory marker in our cell model. Chondrocytes were treated for 20 h with IL-1β alone or 1 h after the addition of C8.
as §1, §2

## O=c1[nH]c(Cc2ccc(OCCCCCOc3cc4ccccc4c4ccccc34)cc2)no1 [C8]
[1]; C8 at 0.31 µM, IL-1β 0.25 ng/mL
  C8 inhibitory effect (%inhibition) on PGE2 secretion: 67 %inhibition
[1]; C8 at 0.31 µM, IL-1β 0.5 ng/mL
  C8 inhibitory effect (%inhibition) on PGE2 secretion: 60 ^* %inhibition
[1]; C8 at 4.96 µM, IL-1β 0.25 ng/mL
  C8 inhibitory effect (%inhibition) on PGE2 secretion: 65 %inhibition
[1]; C8 at 4.96 µM, IL-1β 0.5 ng/mL
  C8 inhibitory effect (%inhibition) on PGE2 secretion: 67 ^* %inhibition
[1]; C8 at 4.96 µM, IL-1β 1 ng/mL
  C8 inhibitory effect (%inhibition) on PGE2 secretion: 68 ^*** %inhibition
[1]; DMEM + 0.1% BSA, C8 0.31 µM
  decrease of PGE2 production induced by IL-1β: 31%
[1]; DMEM + 0.1% BSA, C8 0.62 µM
  decrease of PGE2 production induced by IL-1β: 30%
[1]; DMEM + 0.1% BSA, C8 0.94 µM
  decrease of PGE2 production induced by IL-1β: 45%
[1]; DMEM + 0.1% BSA, C8 1.24 µM
  decrease of PGE2 production induced by IL-1β: 43%
[1]; DMEM + 0.1% BSA, C8 2.48 µM
  decrease of PGE2 production induced by IL-1β: 81%
[1]; DMEM + 0.1% BSA, C8 4.96 µM
  down-regulation of IL-1β-stimulated secretion of PGE2: to the level of the control untreated condition
  decrease of PGE2 production induced by IL-1β: 92%
[1]; DMEM + 2% FCS, C8 0.31 µM
  decrease of PGE2 production induced by IL-1β: 26%
[1]; DMEM + 2% FCS, C8 0.62 µM
  decrease of PGE2 production induced by IL-1β: 48%
[1]; DMEM + 2% FCS, C8 0.94 µM
  decrease of PGE2 production induced by IL-1β: 49%
[1]; DMEM + 2% FCS, C8 1.24 µM
  decrease of PGE2 production induced by IL-1β: 54%
[1]; DMEM + 2% FCS, C8 2.48 µM
  decrease of PGE2 production induced by IL-1β: 68%
[1]; DMEM + 2% FCS, C8 4.96 µM
  decrease of PGE2 production induced by IL-1β: 68%
[1]; DMEM + 2% FCS, C8 2.48 and 4.96 µM
  down-regulation of IL-1β-stimulated secretion of PGE2: to the level of the control untreated condition
[1]; DMEM alone, C8 0.31 µM
  decrease of PGE2 production induced by IL-1β: 59%
[1]; DMEM alone, C8 0.62 µM
  decrease of PGE2 production induced by IL-1β: 58%
[1]; DMEM alone, C8 0.94 µM
  decrease of PGE2 production induced by IL-1β: 74%
[1]; DMEM alone, C8 1.24 µM
  decrease of PGE2 production induced by IL-1β: 80%
[2]; DMEM alone, C8 at 0.31 to 2.48 µM
  cytotoxic effects (MTT): no cytotoxic effects
[2]; DMEM with 0.1% BSA, C8 at 0.31 to 9.92 µM
  cytotoxic effects (MTT): no cytotoxic effects; also recorded: did not decrease cell viability
[2]; DMEM with 2% FCS, C8 at 0.31 to 9.92 µM
  cytotoxic effects (MTT): no cytotoxic effects; also recorded: did not decrease cell viability
[3]; DMEM + 0.1% BSA, IL-1β 20 h
  inhibition of IL-1β-stimulated nitrite secretion: did not significantly inhibit
[3]; DMEM + 2% FCS, C8 1.24 µM
  decrease of IL-1β-induced nitrite production: 17%
[3]; DMEM + 2% FCS, C8 2.48 µM
  decrease of IL-1β-induced nitrite production: 19%
[3]; DMEM + 2% FCS, C8 4.96 µM
  decrease of IL-1β-induced nitrite production: 21%
[3]; DMEM + 2% FCS, C8 at 0.31, 0.62 and 0.94 µM
  inhibition of IL-1β-stimulated nitrite secretion: did not inhibit
[3]; DMEM medium alone, IL-1β 20 h
  inhibition of IL-1β-stimulated nitrite secretion: did not significantly inhibit
